Data on 1 compound can be found in patent US20240352533A1, “Monocarboxylic Acid Transporter 4 as a Biomarker for Hypoxia Driven Tumor Growth and Treatment” (NantBio, Inc., priority 2023, published 2024).

The test has as its system Ishikawa cells. Briefly: Tumorsphere growth with and without Mct-4 overexpression. The following applies: 72 hr. In kind it is cell-based. Here is the method: After 18 hr, 10× drug was added, and after 72 hr, plates were imaged.

For the compound `Cc1cc(-c2nc(-c3ccc(OC(F)(F)F)cc3)no2)nn1Cc1ccnc(N2CCN(C3CC3)CC2)c1` [Bay87-2243], the tumorsphere growth result (Ishikawa cells, 384-well round bottom) is given as “tumorsphere growth inhibition”. In addition, for the setting “Mct-4 overexpressing Ishikawa cells”, the “tumorsphere growth inhibition under Mct-4 overexpression” value is reported as “Mct-4 overexpression reverses tumorsphere growth inhibition”.
